# In patent US20220331333A1, “RHOA PATHWAY INHIBITOR IN THE TREATMENT OF NEURODEVELOPMENTAL DISORDER OR NEUROPSYCHIATRIC DISORDER” (UNIVERSITE DE STRASBOURG, priority 2021, published 2022):
# Tests used:
# [1] = tested on: 16p11.2 Del/+ mouse model; assay: Novel object recognition (NOR) test after chronic fasudil treatment, 16p11.2 Del/+ line; assay type: in vivo; conditions: 16p11.2 Del/+ mice, 100 mg/kg/day orally in drinking water, tested at 19 weeks, 3 h retention delay
# Description: (§1) In this study, the inventors developed a protocol for a pre-clinical treatment (FIG. 1) with the drug fasudil hydrochloride or HA1077 ([…], LC laboratories Boston, Mass., USA). […] Animal bedding was changed once a week. At 11 weeks, animals were transferred from the animal facility to the phenotyping area. The temperature was kept at 21±2° C., and the light cycle was controlled as 12 h light and 12 h dark. At 12 weeks of age, three independent cohorts of mice for each line, with wild-type (wt) and mutant littermates, were subjected to a battery of behavioral tests (see below) for 2 weeks. […] The dose was estimated to 152.7 mg in feeding bottle (250 ml) changed twice a week considering the previous study in which the drinking volume was evaluated to about 4.6 ml/day/mouse. […] During each session the exploration activity was analyzed by measuring the total distance travelled, evaluated the adaptation of the mice to the environment over time, by splitting the data in intervals of 10 minutes and assessed the vertical activity through the number of rears. […] The exploration time of both objects A was recorded. […] The exploration time of the two objects (familiar object and novel object) was recorded. […] Data from behavioral characterization of Kctd13^+/- and 16p11.2 Del/+ mouse models were analyzed through the Student t-test (see supplementary table 1 and table 2 as a summary). […]
# Kctd13^+/− mouse model [2] = assay: Novel object recognition (NOR) test after chronic fasudil treatment, Kctd13+/− line; assay type: in vivo; conditions: Kctd13+/− mice, 100 mg/kg/day orally in drinking water, tested at 19 weeks, 3 h retention delay
# Description: as §1
# [3] = tested on: phosphorylated form of MLC (P-MLC); assay: Western blot of phosphorylated MLC in hippocampal lysates, Kctd13+/− line; assay type: in vivo, mouse; conditions: Kctd13+/− mutant mice, fasudil for 6 weeks, 18-week-old mice
# Description: (§2) At 12 weeks of age, three independent cohorts of mice for each line, with wild-type (wt) and mutant littermates, were subjected to a battery of behavioral tests (see below) for 2 weeks. Then, 14 weeks old mice were randomly divided into 2 groups: one treated with fasudil administrated orally ad libitum in drinking water to reach a dose of 100 mg/kg/day and a second with no treatment. The dose was estimated to 152.7 mg in feeding bottle (250 ml) changed twice a week considering the previous study in which the drinking volume was evaluated to about 4.6 ml/day/mouse. […]
# (§3) Fresh hippocampal tissues were isolated by rapid decapitation/dissection of naive mice and snap frozen. […] Protein concentration was determined by Pierce™ BCA Protein Assay Kit (23225, Thermo Fisher Scientific, Strasbourg). […] Total levels of RHOA protein and Myosin Light Chain phosphorylation by Myosin Light Chain Kinase via RHOA pathway were analyzed using Western Blot. […] Signals were quantified using ImageJ and analyzed using Microsoft Excel and GraphPad Prism. […] The ratio of protein level or phosphorylation level against control β-actin protein level (detected with a mouse monoclonal Anti-βActin-Peroxidase antibody (A3854 Sigma)) was normalized to untreated wt sample mean. […]
# [4] = tested on: phosphorylated form of MLC (P-MLC); assay: Western blot of phosphorylated MLC in hippocampal lysates, 16p11.2 Del/+ line; assay type: in vivo, mouse; conditions: fasudil for 6 weeks, 18-week-old mice
# Description: as §2, §3
# [5] = tested on: 16p11.2 Del/+ mouse model; assay: Open field test after chronic fasudil treatment, 16p11.2 Del/+ line; assay type: in vivo; conditions: 16p11.2 Del/+ and wt littermates, 100 mg/kg/day orally in drinking water, 4 weeks
# Description: as §1
# Kctd13^+/− mouse model [6] = assay: Open field test after chronic fasudil treatment, Kctd13+/− line; assay type: in vivo; conditions: Kctd13+/− and wt littermates, 100 mg/kg/day orally in drinking water, 4 weeks
# Description: as §1
# RHOA [7] = assay: Western blot of RHOA in hippocampal lysates, 16p11.2 Del/+ line; assay type: in vivo, mouse; conditions: fasudil for 6 weeks, 18-week-old mice
# Description: as §2, §3
# RHOA [8] = assay: Western blot of RHOA in hippocampal lysates, Kctd13+/− line; assay type: in vivo, mouse; conditions: fasudil for 6 weeks, 18-week-old mice
# Description: as §2, §3
smiles,measurement,setting,value
"O=S(=O)(c1cccc2cnccc12)N1CCCNCC1 [fasudil, hexahydro-1-(5-isoquinolinesulfonyl)-1H-1,4-diazepine]",novel object recognition (recognition index vs 50% chance level),[1],significantly improved the NOR defect
same,novel object recognition (recognition index vs 50% chance level),Kctd13^+/− mouse model [2],significantly improved the NOR defect
same,MLC phosphorylation levels in hippocampus,[3],reduced MLC phosphorylation levels
same,MLC phosphorylation levels in hippocampus,[4]; 16p11.2 Del/+ mutant mice,restored a normal MLC phosphorylation
same,MLC phosphorylation levels in hippocampus,[4]; wt littermates of the 16p11.2 Del/+ line,induced increased MLC phosphorylation in wt mice
same,vertical activity (number of rears) in open field,[5],did not have effect on any genotype for the vertical activity
same,locomotor exploration activity (total distance travelled) in open field,[5]; treated vs non-treated,did not change the locomotor exploration activity
same,vertical activity (number of rears) in open field,Kctd13^+/− mouse model [6],did not have effect on any genotype for the vertical activity
same,locomotor exploration activity (total distance travelled) in open field,Kctd13^+/− mouse model [6]; treated vs non-treated,did not change the locomotor exploration activity
same,RHOA protein levels in hippocampus,RHOA [7],did not cause changes in RHOA protein levels
same,RHOA protein levels in hippocampus,RHOA [8],did not cause changes in RHOA protein levels
